Measurements taken from ChEMBL document CHEMBL1128364 (J Med Chem, 1995).
Each block holds one compound with its values, some of them ahead of it. Numbered stars: 1 amine (or outer) side, 2 acyl side, 3 side chain; on linkers, the order of the positions; unused ones are H or OH. Bridge positions count the residues as written; N and C are the ends. Square brackets hold non-standard residues; d marks the D form. Peptide text beside a SMILES is read from it. X2 = O=C(CC1(S[*:2])CCCCC1)[*:1]

Legend:
[1] = system: Rattus norvegicus; test: (§1) In vivo anti-oxytocic activity was determined.; format: functional
[2] = biological target: T1, Oxytocin receptor (Rattus norvegicus, UniProt P70536); test: In vitro anti-oxytocic activity with 0.5 mM Mg2+.; conditions: for Kb: read-out: pA2 (converted)
T1 sequence (P70536 whole entry): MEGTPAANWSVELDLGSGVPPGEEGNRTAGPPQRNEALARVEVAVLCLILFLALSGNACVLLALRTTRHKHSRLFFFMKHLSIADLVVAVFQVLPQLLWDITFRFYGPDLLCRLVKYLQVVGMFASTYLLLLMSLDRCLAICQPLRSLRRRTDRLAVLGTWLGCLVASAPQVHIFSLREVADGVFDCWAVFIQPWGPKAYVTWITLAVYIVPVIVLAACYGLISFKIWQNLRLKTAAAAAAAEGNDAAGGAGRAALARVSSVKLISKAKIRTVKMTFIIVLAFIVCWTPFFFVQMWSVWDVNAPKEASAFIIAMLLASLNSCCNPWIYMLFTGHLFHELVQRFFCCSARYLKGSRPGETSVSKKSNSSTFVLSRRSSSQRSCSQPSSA

[3] = biological target: T1, Oxytocin receptor; test: In vitro anti-oxytocic activity with out Mg2+.
[4] = biological target: Vasopressin V1a receptor (Rattus norvegicus, UniProt P30560); test: (§2) Anti-vasopressor activity at V1a receptor; conditions: for Kb: read-out: pA2 (converted)
Vasopressin V1a receptor, sequence (P30560 whole entry): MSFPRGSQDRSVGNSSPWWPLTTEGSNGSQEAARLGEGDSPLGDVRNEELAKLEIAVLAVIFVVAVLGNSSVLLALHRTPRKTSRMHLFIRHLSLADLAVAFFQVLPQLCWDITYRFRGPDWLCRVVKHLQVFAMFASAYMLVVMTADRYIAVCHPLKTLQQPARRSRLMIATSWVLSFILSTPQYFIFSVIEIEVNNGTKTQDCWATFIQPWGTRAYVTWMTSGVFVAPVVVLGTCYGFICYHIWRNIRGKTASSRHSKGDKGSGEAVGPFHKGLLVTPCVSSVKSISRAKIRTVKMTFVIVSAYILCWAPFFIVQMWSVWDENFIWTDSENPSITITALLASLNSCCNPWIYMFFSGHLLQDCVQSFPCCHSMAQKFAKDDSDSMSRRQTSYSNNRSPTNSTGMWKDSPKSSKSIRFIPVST

[5] = system: Rattus norvegicus; test: as §1; format: functional, organism-based; conditions: read-out: pA2 (converted)
[6] = system: Rattus norvegicus; test: In vivo activity for the anti-oxytocic activity.; format: functional
[7] = biological target: Vasopressin V2 receptor (Rattus norvegicus, UniProt Q00788); test: (§3) Antidiuretic activity at V2 receptor; format: tissue-based, Urine; conditions: read-out: pA2 (converted)
Vasopressin V2 receptor, sequence (Q00788 whole entry): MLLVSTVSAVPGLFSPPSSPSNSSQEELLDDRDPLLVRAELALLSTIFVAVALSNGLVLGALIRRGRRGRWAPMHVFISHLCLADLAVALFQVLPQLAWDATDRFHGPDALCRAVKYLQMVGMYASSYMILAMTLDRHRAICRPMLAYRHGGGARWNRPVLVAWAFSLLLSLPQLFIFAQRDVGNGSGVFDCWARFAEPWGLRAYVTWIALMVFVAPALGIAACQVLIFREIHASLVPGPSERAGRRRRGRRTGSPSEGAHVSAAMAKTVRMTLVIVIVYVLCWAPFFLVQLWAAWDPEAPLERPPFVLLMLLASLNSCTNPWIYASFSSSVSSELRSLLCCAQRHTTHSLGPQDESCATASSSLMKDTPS

[8] = biological target: T1, Oxytocin receptor; test: In vitro antioxycic activity with out Mg2+.; conditions: read-out: pA2 (converted)
[9] = biological target: Vasopressin V1a receptor (Rattus norvegicus) (UniProt P30560); test: as §2
Vasopressin V1a receptor (Rattus norvegicus), sequence (P30560 whole entry, looked up): as the sequence (P30560 whole entry) above

[10] = biological target: Vasopressin V2 receptor (Rattus norvegicus) (UniProt Q00788); test: as §3; format: tissue-based; conditions: Urine
Vasopressin V2 receptor (Rattus norvegicus), sequence (Q00788 whole entry): as the sequence (Q00788 whole entry) above

Compound: CC[C@H](C)[C@@H]1NC(=O)[C@H](Cc2ccc(OC)cc2)NC(=O)CC2(CCCCC2)SSC[C@H](C(=O)N2CCC[C@H]2C(=O)N[C@@H](CCCN)C(=O)NCC(N)=O)NC(=O)[C@H](CC(N)=O)NC(=O)[C@H](CCC(N)=O)NC1=O [listing 1 of 2 here]
ED [1]: 3.11 nM/kg

pA2 [2]: 7.64
pA2 [3]: 8.02
pA2 [4]: 5.43
Compound: CC[C@H](C)[C@@H]1NC(=O)[C@@H](Cc2c[nH]c3ccccc23)NC(=O)CC2(CCCCC2)SSC[C@@H](C(=O)N2CCC[C@H]2C(=O)N[C@@H](CCCN)C(=O)NCC(N)=O)NC(=O)[C@H](CC(N)=O)NC(=O)[C@H]([C@@H](C)O)NC1=O
Kb [5]: 45.7 nM

Compound: COc1ccc(C[C@@H]2NC(=O)CC3(CCCCC3)SSC[C@H](C(=O)N3CCC[C@H]3C(=O)N[C@@H](CCCN=C(N)N)C(=O)NCC(N)=O)NC(=O)[C@H](CC(N)=O)NC(=O)[C@H](CCC(N)=O)NC(=O)[C@H](Cc3ccccc3)NC2=O)cc1
ED [6]: 17 nM/kg

Compound: CCOc1ccc(C[C@@H]2NC(=O)CC3(CCCCC3)SSC[C@H](C(=O)N3CCC[C@H]3C(=O)N[C@@H](CCCN=C(N)N)C(=O)NCC(N)=O)NC(=O)[C@H](CC(N)=O)NC(=O)[C@H](C(C)C)NC(=O)[C@H](Cc3ccccc3)NC2=O)cc1
Kb [4]: 64.6 nM

Compound: CC[C@H](C)[C@@H]1NC(=O)[C@@H](Cc2c[nH]c3ccccc23)NC(=O)CC2(CCCCC2)SSC[C@@H](C(=O)N2CCC[C@H]2C(=O)N[C@@H](CCCN=C(N)N)C(=O)NCC(N)=O)NC(=O)[C@H](CC(N)=O)NC(=O)[C@H](CCC(N)=O)NC1=O ([dW]IQNCPRG-NH2; linker N-5 via X2)
Kb [7]: > 1260 nM
Kb [4]: 27.5 nM

Kb [8]: 23.4 nM
Kb [2]: 5.25 nM
ED [9]: 6.6 nM/kg
Antidiuretic activity [10]: 0.015 U mg-1
Kb [4]: 95.5 nM
Compound: CC[C@H](C)[C@@H]1NC(=O)[C@H](Cc2ccc(OC)cc2)NC(=O)CC2(CCCCC2)SSC[C@@H](C(=O)N2CCC[C@H]2C(=O)N[C@@H](CCCN)C(=O)N[C@@H](Cc2ccc(O)cc2)C(N)=O)NC(=O)[C@H](CC(N)=O)NC(=O)[C@H]([C@@H](C)O)NC1=O

Compound: CC[C@H](C)[C@@H]1NC(=O)[C@H](Cc2ccc(O)cc2)N(C)C(=O)CC2(CCCCC2)SSC[C@H](C(=O)N2CCC[C@H]2C(=O)N[C@@H](CCCN)C(=O)NCC(N)=O)NC(=O)[C@H](CC(N)=O)NC(=O)[C@H](CCC(N)=O)NC1=O
ED [9]: 3.73 nM/kg

Compound: CC[C@H](C)[C@@H]1NC(=O)[C@H](Cc2ccc(OC)cc2)NC(=O)CC2(CCCCC2)SSC[C@H](C(=O)N2CCC[C@H]2C(=O)N[C@@H](CCCN)C(=O)N[C@@H](Cc2ccc(O)cc2)C(N)=O)NC(=O)[C@H](CC(N)=O)NC(=O)[C@H]([C@@H](C)O)NC1=O [listing 1 of 2 here]
ED [1]: 5.63 nM/kg

Compound: CC(C)[C@@H]1NC(=O)[C@H](Cc2ccccc2)NC(=O)[C@@H](Cc2ccccc2)NC(=O)CC2(CCCCC2)SSC[C@@H](C(=O)N2CCC[C@H]2C(=O)N[C@@H](CCCN=C(N)N)C(=O)NCC(N)=O)NC(=O)[C@H](CC(N)=O)NC1=O
Kb [7]: 8.51 nM
Kb [4]: 8.71 nM

Compound: CC[C@H](C)[C@@H]1NC(=O)[C@@H](Cc2c[nH]c3ccccc23)NC(=O)CC2(CCCCC2)SSC[C@H](C(=O)N2CCC[C@H]2C(=O)N[C@@H](CCCN=C(N)N)C(=O)NCC(N)=O)NC(=O)[C@H](CC(N)=O)NC(=O)[C@H](CCC(N)=O)NC1=O ([dW]IQN[dC]PRG-NH2; linker N-5 via X2)
Kb [7]: > 2510 nM
Kb [4]: 29.5 nM

Kb [7]: 3160 nM
Kb [8]: 11 nM
Kb [2]: 38.9 nM
Kb [4]: 148 nM
Compound: CC[C@H](C)[C@@H]1NC(=O)[C@H](Cc2ccc(OC)cc2)NC(=O)CC2(CCCCC2)SSC[C@H](C(=O)N2CCC[C@H]2C(=O)N[C@@H](CCCN)C(=O)N[C@@H](Cc2ccc(O)cc2)C(N)=O)NC(=O)[C@H](CC(N)=O)NC(=O)[C@H]([C@@H](C)O)NC1=O [listing 2 of 2 here]
Kb [5]: 83.2 nM

Compound: CC[C@H](C)[C@@H]1NC(=O)[C@H](Cc2ccc(OC)cc2)NC(=O)CC2(CCCCC2)SSC[C@H](C(=O)N2CCC[C@H]2C(=O)N[C@@H](CCCN)C(=O)NCC(N)=O)NC(=O)[C@H](CC(N)=O)NC(=O)[C@H](CCC(N)=O)NC1=O [listing 2 of 2 here]
Kb [7]: 1260 nM
Kb [2]: 36.3 nM
Kb ([3]; read-out: pA2 (converted)): 22.4 nM
Kb [4]: 56.2 nM
Kb [5]: 46.8 nM

Compound: CCOc1ccc(C[C@H]2NC(=O)CC3(CCCCC3)SSC[C@H](C(=O)N3CCC[C@H]3C(=O)N[C@@H](CCCN=C(N)N)C(=O)NCC(N)=O)NC(=O)[C@H](CC(N)=O)NC(=O)[C@H](C(C)C)NC(=O)[C@H](Cc3ccccc3)NC2=O)cc1
ED [6]: 4.8 nM/kg

Compound: CC[C@H](C)[C@@H]1NC(=O)[C@H](Cc2ccc(OC)cc2)NC(=O)CC2(CCCCC2)SSC[C@@H](C(=O)N2CCC[C@H]2C(=O)N[C@@H](CCCN)C(=O)NCC(N)=O)NC(=O)[C@H](CC(N)=O)NC(=O)[C@H](CCC(N)=O)NC1=O
Kb [8]: 3.02 nM
Kb [2]: 13.2 nM
ED [9]: 0.8 nM/kg
Antidiuretic activity [10]: 0.01 U mg-1
Kb [4]: 11 nM
